The nature of data set [1]: Solubility in water / physical properties. It counts as physicochemical.
For a further data set, the system named is cells. As to conditions: reacted with fluoresceinated avidin; compared with biotin-p-nitrophenyl ester; cited from earlier work.
For data set [2] the following is noted: prior-art agents; cited from earlier work.
Data set [3] relates to sheep red blood cells (SRBC). In words: Labelling of sheep red blood cells, cytofluorometry. The data set is classed as cell-based. As to conditions: excitation at 360 nm. On the procedure:
Dansyl-sac-HNSA ester was prepared as described in Example 1A using molar equivalents of HNSA, dicyclohexylcarbodiimide and dansyl-ε-aminocaproic acid (from Sigma Chemicals). For use in coupling to sheep red blood cells (SRBC) the dansyl-sac-HNSA ester (50 mg) was prepared in 7 ml of 0.28 M cacodylate buffer, pH 6.9.
Sheep red blood cells were washed 4 times (400×g, 8 minutes) in G-PBS buffer (5% α-D-glucose w/v in PBSCa-Mg). To 1 ml of packed red blood cells was added the 7 ml of dansyl-sac-HNSA ester dropwise with gentle mixing for 10 minutes at room temperature. The reaction was done in foil-wrapped glassware to protect against photodecomposition. Following the reaction the cells were washed in cold G-PBS buffer containing 1% heat inactivated (56° C., 30 minutes) FCS (fetal calf serum) until the supernatants were colorless (a minimum of 4 washes).
The dansyl-sac-HNSA labelled SRBC were monitored using a Coulter EPICS V Cytofluorometer immediately after labeling and at 24 hours. […] This translates to an increase in intensity 720 times over unlabeled cells.

The conditions of data set [4]: pH 7.4; cited from earlier work.
The subject of the next data set is bovine serum albumin. As to conditions: pH 8.5; compared with same ester of N-hydroxysuccinimide; cited from earlier work.
The next data set can be described thus: Stability in water. It counts as physicochemical. The conditions noted are these: no nucleophiles added.
Data set [5] in a line: Hydrolysis of ester by sodium hydroxide. It counts as physicochemical. The conditions noted are these: 4.8 N sodium hydroxide added, pH 7.0 phosphate buffer aliquot. As for the experimental part:
(§1) About 0.5 mg of the purified mal-sac HNSA ester from Example 1A was dissolved in 1 ml of distilled water.

Data set [6] has as its system Horseradish Peroxidase (HRP). The conditions noted are these: over a 30 minute period; pH 7.0.
Method: A total of 40 mg (1.0 μmoles) of HRP (Sigma Chemical Co.) was dissolved in 0.5 ml of 0.1 M phosphate buffer at pH 7.0 to yield an amine concentration of 3.7×10^-3 M. Then, 5 mg (1.1×10^-5 moles) of the mal-sac HNSA ester of Example 1A, calculated from the data in Example 2A, was dissolved in 0.5 ml of the HRP solution. The mixture was stirred at room temperature. Five μl aliquots were removed from the incubating solution at timed intervals and were each diluted into 1.0 ml of 0.01 M sodium phosphate buffer at pH 7.0. The spectrum of each diluted aliguot was recorded and the absorbance at 406 nm measured. A total of 50 μl of 4.8 N NaOH was then added to each aliquot, each aliquot was mixed and its spectrum retaken and the absorbance at 406 nm measured. Because HRP has an absorbance at 406 nm due to its heme group and this absorbance changes after addition of sodium hydroxide, corrections for the absorbances due to the HRP were made on every dilution.
After 30 minutes the reaction was stopped using a Sephadex G-25 column as described in Example 2A. Fractions were collected and measured for absorbance at 406 nm and 280 nm.
In the next data set the test system is streptavidin. Also noted: species or system Streptomyces avidinii. As for the experimental part:
A total of 0.26 mg (4.3×10^-3 μmoles) of streptavidin purified from Streptomyces avidinii by the method of Hoffman et al., PNAS, 77, 4666-4668 (1980) was dissolved in 1.0 ml of phosphate buffered saline at pH 7.4 to yield a total amine concentration of 6.93×10^-5 M (16 NH2 /streptavidin). […] Good separation was achieved between the protein and the excess HNSA and unreacted HNSA ester. […] In this case […] of the amino groups on streptavidin (12.9 out of 16.0) reacted.

The test system of a further data set is biotinylated polylysine. The conditions noted are these: over a 30 minute period; pH 7.4.
A further data set in a line: Storage stability. It counts as physicochemical. The conditions noted are these: purified ester, stored desiccated.
The subject of another data set is avidin. The conditions noted are these: for Percent Ester Remaining: room temperature.
The test system of data set [7] is bovine serum albumin (BSA). The conditions noted are these: for Percent Ester Remaining in Solution: pH 7.5, room temperature. On the procedure:
as §1
The difference between the post-base and initial free HNSA concentration represents the concentration of ester. From the actual concentration of ester the amount of ester to be added to the protein solution to achieve the desired degree of substitution can be calculated.
A total of 22 mg ([…]) of BSA (of molecular weight 66,296) was dissolved in 2.0 ml of 0.01 M phosphate buffer at pH 7.5 to yield a total amino concentration of 1.0×10^-2 moles per liter (assuming 59 lysines/BSA molecule). […] The reaction was carried out at room temperature. […]

Read-outs that look alike come from different tables or passages of the source.

Method for biotinylated polylysine: Biotinylated polylysine (0.6 ml; 73,000 D average mol. wt.) was adjusted to pH 7.4 with 0.015 ml of 2.5 N NaOH. Approximately 5 mg of mal-sac-HNSA was added to the biotinylated polylysine and stirred at room temperature. Ten μl aliquots were removed from the mixture at timed intervals and diluted into 1.0 ml of 0.01 M phosphate buffer at pH 7.0. The spectrum of each diluted aliquot was measured and the absorbance at 406 nm recorded. A total of 50 μl of 4.8 N NaOH solution was then added to each aliquot, mixed, and the spectrum retaken.
After 30 minutes of incubation time, the reaction was stopped using a Sephadex G-25 column, and the high molecular weight (biotin)4 -polylysine-(sac-mal)18 was well separated from excess HNSA and unreacted mal-sac-HNSA.

Regarding `O=C1N[C@H]2[C@H](CS[C@H]2CCCCC(=O)Oc2ccc(S(=O)(=O)O)cc2[N+](=O)[O-])N1` [biotin-HNSA], the “physical properties relative to mal-sac HNSA ester” value in [1] is recorded as “essentially the same physical properties”. For the same compound, the “increase in fluorescence of treated cells” value in the data set with cells is reported as “much larger increase in fluorescence”. Besides, the “amino groups of the polylysine polypeptide reacted” value with polylysine (7 minutes) came out at 28%. Also, in the data set on polylysine (over a 5 minute period, pH 7.4), the reaction rate entry is listed as “essentially linear”.
Consider `O=C(CCSSc1ccccn1)ON1C(=O)CCC1=O` [SPDP, N-succinimidyl-3-(2-pyridyldithio)propionate], for which the water solubility entry in data set [2] is “lack of water solubility”.
For the compound `CN(C)c1cccc2c(S(=O)(=O)NCCCCCC(=O)Oc3ccc(S(=O)(=O)O)cc3[N+](=O)[O-])cccc12` [dansyl-sac-HNSA], in [3], the “increase in intensity over unlabeled cells” value stood at 720 times.
For the compound `O=C(CNC(=O)OCc1ccccc1)Oc1ccc(S(=O)(=O)O)cc1[N+](=O)[O-]` [Z-gly-HNSA, N-benzyloxycarbonyl-gly-HNSA], the “rate of aminolysis by glycine relative to hydrolysis rate” value in [4] is recorded as “considerably higher than its hydrolysis rate”.
Consider `O=C(CCCCCNc1ccc([N+](=O)[O-])cc1[N+](=O)[O-])Oc1ccc(S(=O)(=O)O)cc1[N+](=O)[O-]` [N-2,4-dinitrophenyl-6-aminocaproic acid ester of HNSA], for which the “efficiency in conjugating to bovine serum albumin” value in the data set on bovine serum albumin is listed as “more efficient”.
`O=C(CCSSc1ccccn1)Oc1ccc(S(=O)(=O)O)cc1[N+](=O)[O-]` [3-(2-pyridyldithio)propionyl-HNSA, 3-(2-pyridyldithio)propionyl-HNSA ester]: in data set [1], the “physical properties relative to mal-sac HNSA ester” value was “essentially the same properties”.
Consider `O=C(CCCCCN1C(=O)C=CC1=O)Oc1ccc(S(=O)(=O)O)cc1[N+](=O)[O-]` [mal-sac-HNSA, N-maleimido-6-aminocaproyl-HNSA], for which, in “Stability in water”, the stability in water result is recorded as “stable in water for several hours”. In addition, the hydrolysis by hydroxide result in [5] is listed as “rapidly hydrolyzed”. Besides, the reaction rate result is on record as “essentially linear” in [6]; “essentially linear” in the data set on streptavidin (over the period measured, pH 7.4); “essentially linear” in the data set on biotinylated polylysine; “linear” with avidin (FIG. 3); “essentially linear” in data set [7] (over a 15 minute period). Besides, the “amino groups on streptavidin reacted” value in the data set on streptavidin (20 minutes) is 79%. Besides, the “number of amino groups on streptavidin reacted” value with streptavidin (20 minutes, out of 16.0) is 12.9. The storage stability result in “Storage stability” is reported as “stable for extended periods”. In addition, the solubility in water result in data set [1] is reported as “dissolve fully in water”. In addition, the “Percent Ester Remaining” value in the data set with avidin (0 minutes) worked out at 89%; in the data set on avidin (5 minutes) it was 86%; with avidin (20 minutes) it was 78%; with avidin (30 minutes), 73%. The “amino groups of avidin reacted” value with avidin (30 minutes, 27 amino groups per avidin molecule) is reported as 13.5 amino groups. Further, the “Concentration of Ester” value in data set [7] (0 minutes) is 0.000156 mol/L; in [7] (5 minutes), 0.000116 mol/L; in data set [7] (9 minutes) it was 0.000103 mol/L; in data set [7] (14 minutes) it was 0.000111 mol/L. The “Percent Ester Remaining in Solution” value stood at 94.0% in data set [7] (0 minutes), 82.9% in data set [7] (5 minutes), 78.3% in data set [7] (9 minutes) and 74.5% in data set [7] (14 minutes). In data set [7] (15 minutes), the ester reacted was 0.0026 mol/L. For the same compound, the “ε-amino groups of BSA substituted” value in data set [7] (15 minutes, of 59 ε-amino groups) is listed as 25.9%. Also, the “Concentration of HNSA” value was found to be 0.000166 mol/L in data set [7] (With NaOH, 0 minutes); 0.00014 mol/L in [7] (With NaOH, 5 minutes); 0.000132 mol/L in data set [7] (With NaOH, 9 minutes); 0.000149 mol/L in data set [7] (With NaOH, 14 minutes); 1.03e-05 mol/L in data set [7] (Without NaOH, 0 minutes); 2.44e-05 mol/L in data set [7] (Without NaOH, 5 minutes). The “Concentration of HNSA” value stood at 2.87e-05 mol/L in [7] (Without NaOH, 9 minutes) and 3.77e-05 mol/L in data set [7] (Without NaOH, 14 minutes).
Regarding “mal-sac-BSA: product of the first reaction of mal-sac-HNSA ester with bovine serum albumin”, in [7] (15 minutes), the “mal-sac groups per molecule” value is recorded as 16 mal-sac groups per molecule.

The values are drawn from patent US4943636A, “Certain pyridyl-di-sulfide-alkylenecarbonxylate-ortho-nitro-phenylsulfonic acid esters useful for coupling biological materials” (Cetus Corporation, priority 1987, dated 1990).
